Data on one molecule can be found in ChEMBL document CHEMBL3392986, “Hydroxamic acids block replication of hepatitis C virus” (J Med Chem, 2015).

Data set [1] concerns the target Macrophage metalloelastase (Homo sapiens) (UniProt P39900). Kind of data set: Inhibition of human recombinant MMP12 catalytic domain (99 to 271 aa) expressed in Escherichia coli.
Data set [2] relates to Hepatitis C virus. The data set can be described thus: Antiviral activity against HCV genotype 1b infected in human Huh7 cells after 3 days by luciferase reporter gene assay. Type of data set: functional, cell-based, Hepacivirus hominis. As to conditions: Huh-7, 72 h. A general note: In a reporter assay the amount or activity of a reporter protein is the signal.
In data set [3] the test system is Hepacivirus hominis. The data set can be described thus: Inhibition of HCV NS5B RNA dependent RNA polymerase.
The target in data set [4] is Histone deacetylase 1 (Homo sapiens) (UniProt Q13547). Kind of data set: Inhibition of full length C-terminal GST-tagged human HDAC1 expressed in baculovirus expression system assessed as inhibition of fluorophore 7-amino-4-methylcoumarin release by fluorescence assay.
Data set [5] concerns the target T1, Histone deacetylase 8 (Homo sapiens) (UniProt Q9BY41).
T1 sequence (whole entry): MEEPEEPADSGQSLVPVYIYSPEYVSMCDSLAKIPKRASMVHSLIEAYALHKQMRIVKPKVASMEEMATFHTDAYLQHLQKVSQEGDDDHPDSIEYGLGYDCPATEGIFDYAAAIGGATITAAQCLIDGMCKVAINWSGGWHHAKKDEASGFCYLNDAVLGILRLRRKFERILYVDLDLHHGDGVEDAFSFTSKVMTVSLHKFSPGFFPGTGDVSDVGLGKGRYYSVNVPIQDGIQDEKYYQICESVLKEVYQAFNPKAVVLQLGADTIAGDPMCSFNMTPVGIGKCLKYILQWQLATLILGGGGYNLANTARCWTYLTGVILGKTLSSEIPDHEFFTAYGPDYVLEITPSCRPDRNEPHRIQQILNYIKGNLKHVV
The data set can be described thus: Inhibition of full length human HDAC8 expressed in Escherichia coli assessed as inhibition of fluorophore 7-amino-4-methylcoumarin release by fluorescence assay.

A short description of data set [6]: Cytotoxicity against human HuH7 cells assessed as inhibition of cell viability after 3 days by CellTiter 96 assay.
Data set [7] has as its target Histone deacetylase 3 (Homo sapiens) (UniProt O15379). Kind of data set: Inhibition of full length C-terminal His-tagged human HDAC3 expressed in baculovirus expression system assessed as inhibition of fluorophore 7-amino-4-methylcoumarin release by fluorescence assay.
The target in data set [8] is Disintegrin and metalloproteinase domain-containing protein 17 (Homo sapiens) (UniProt P78536). The data set can be described thus: Inhibition of human recombinant TACE catalytic domain (215 to 671 aa) expressed in Escherichia coli.
The target in data set [9] is Histone deacetylase 9 (Homo sapiens) (UniProt Q9UKV0). Kind of data set: Inhibition of full length C-terminal His-tagged human HDAC9 (amino acids 604 to 1066 ) expressed in baculovirus expression system assessed as inhibition of fluorophore 7-amino-4-methylcoumarin release by fluorescence assay.
The target in data set [10] is T2, Histone deacetylase 7 (Homo sapiens) (UniProt Q8WUI4).
T2 sequence (whole entry): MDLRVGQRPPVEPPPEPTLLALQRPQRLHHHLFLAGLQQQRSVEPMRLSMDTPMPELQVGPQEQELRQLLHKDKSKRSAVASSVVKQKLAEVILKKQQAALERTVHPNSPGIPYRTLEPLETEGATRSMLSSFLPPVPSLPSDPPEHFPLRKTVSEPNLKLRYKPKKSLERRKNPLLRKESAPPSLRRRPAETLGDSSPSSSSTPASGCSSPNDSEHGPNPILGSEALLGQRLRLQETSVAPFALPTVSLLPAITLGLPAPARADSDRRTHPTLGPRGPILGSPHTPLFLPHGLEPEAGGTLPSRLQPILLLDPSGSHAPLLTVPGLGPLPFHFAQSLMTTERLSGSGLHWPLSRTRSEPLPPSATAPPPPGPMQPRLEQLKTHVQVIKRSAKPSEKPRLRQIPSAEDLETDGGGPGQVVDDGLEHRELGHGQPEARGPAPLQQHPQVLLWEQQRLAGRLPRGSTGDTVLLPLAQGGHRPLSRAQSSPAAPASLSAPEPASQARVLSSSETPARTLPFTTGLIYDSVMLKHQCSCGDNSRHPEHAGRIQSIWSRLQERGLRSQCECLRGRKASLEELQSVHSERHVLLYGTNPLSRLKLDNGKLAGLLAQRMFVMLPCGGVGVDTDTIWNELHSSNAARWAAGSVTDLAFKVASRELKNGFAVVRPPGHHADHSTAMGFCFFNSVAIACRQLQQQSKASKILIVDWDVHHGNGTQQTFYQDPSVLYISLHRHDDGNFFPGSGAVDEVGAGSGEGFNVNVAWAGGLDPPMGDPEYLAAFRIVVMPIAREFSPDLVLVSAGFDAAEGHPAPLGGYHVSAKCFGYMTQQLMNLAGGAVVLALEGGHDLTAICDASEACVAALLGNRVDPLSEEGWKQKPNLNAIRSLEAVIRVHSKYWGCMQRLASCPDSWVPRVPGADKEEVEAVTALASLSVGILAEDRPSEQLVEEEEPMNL
Kind of data set: Inhibition of full length N-terminal GST-tagged human HDAC7 (amino acids 518 to end) expressed in baculovirus expression system assessed as inhibition of fluorophore 7-amino-4-methylcoumarin release by fluorescence assay.

Data set [11] addresses T3, Polyamine deacetylase HDAC10 (Homo sapiens) (UniProt Q969S8).
T3 sequence (whole entry): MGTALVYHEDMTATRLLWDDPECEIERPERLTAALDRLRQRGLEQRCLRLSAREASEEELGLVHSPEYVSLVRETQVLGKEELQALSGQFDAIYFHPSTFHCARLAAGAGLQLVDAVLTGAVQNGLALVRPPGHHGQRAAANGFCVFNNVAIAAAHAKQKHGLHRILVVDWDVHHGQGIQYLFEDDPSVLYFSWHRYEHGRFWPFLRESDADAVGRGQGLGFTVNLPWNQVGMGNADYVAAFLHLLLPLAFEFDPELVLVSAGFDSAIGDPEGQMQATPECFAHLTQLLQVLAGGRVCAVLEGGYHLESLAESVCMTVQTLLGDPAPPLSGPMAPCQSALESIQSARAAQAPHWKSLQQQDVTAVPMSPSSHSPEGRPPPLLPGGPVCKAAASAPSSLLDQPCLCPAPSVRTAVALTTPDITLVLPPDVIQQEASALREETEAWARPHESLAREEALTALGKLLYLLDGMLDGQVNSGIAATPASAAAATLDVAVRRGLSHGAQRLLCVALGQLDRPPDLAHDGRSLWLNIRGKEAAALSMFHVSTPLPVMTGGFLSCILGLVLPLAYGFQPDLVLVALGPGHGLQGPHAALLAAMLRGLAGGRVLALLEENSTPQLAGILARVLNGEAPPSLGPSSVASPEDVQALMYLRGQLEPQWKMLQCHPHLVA
The data set can be described thus: Inhibition of full length N-terminal GST-tagged human HDAC10 (amino acids 1 to 631 ) expressed in baculovirus expression system assessed as inhibition of fluorophore 7-amino-4-methylcoumarin release by fluorescence assay.

Data set [12] addresses Histone deacetylase 4 (Homo sapiens) (UniProt P56524). The data set can be described thus: Inhibition of N-terminal GST-tagged human HDAC4 (amino acids 627 to 1085) expressed in baculovirus expression system assessed as inhibition of fluorophore 7-amino-4-methylcoumarin release by fluorescence assay.

Molecules are shown by their SMILES. The source made the active and inactive calls. No cut-off for these calls is given here.

Chain of Histone deacetylase 9 (Homo sapiens) (Q9UKV0 whole entry, the tested form may be a part): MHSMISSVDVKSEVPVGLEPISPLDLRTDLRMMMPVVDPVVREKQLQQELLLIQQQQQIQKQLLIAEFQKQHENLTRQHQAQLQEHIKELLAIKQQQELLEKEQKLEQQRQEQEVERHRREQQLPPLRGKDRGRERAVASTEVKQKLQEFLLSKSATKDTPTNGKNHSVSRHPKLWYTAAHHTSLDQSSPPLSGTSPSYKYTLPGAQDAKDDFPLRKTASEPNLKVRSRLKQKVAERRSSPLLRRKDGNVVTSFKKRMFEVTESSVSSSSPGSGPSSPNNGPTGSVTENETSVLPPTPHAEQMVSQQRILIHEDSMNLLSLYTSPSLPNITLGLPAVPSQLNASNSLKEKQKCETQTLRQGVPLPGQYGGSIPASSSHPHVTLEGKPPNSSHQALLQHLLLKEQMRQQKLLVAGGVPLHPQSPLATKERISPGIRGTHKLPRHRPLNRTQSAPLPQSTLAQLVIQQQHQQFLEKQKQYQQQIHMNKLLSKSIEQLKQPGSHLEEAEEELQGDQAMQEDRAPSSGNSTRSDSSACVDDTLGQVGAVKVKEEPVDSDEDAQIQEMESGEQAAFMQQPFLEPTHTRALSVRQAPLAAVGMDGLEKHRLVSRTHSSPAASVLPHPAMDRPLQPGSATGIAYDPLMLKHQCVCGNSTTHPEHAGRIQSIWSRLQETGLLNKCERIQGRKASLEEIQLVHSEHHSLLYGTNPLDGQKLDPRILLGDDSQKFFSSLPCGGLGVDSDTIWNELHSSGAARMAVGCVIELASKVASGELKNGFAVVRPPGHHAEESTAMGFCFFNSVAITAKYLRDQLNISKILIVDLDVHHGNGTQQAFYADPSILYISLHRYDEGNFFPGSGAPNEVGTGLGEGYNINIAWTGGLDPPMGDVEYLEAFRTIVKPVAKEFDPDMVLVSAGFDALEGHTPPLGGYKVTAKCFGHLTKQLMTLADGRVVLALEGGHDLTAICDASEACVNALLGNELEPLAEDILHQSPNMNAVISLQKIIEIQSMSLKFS
Chain of Histone deacetylase 3 (Homo sapiens) (O15379 whole entry, the tested form may be a part): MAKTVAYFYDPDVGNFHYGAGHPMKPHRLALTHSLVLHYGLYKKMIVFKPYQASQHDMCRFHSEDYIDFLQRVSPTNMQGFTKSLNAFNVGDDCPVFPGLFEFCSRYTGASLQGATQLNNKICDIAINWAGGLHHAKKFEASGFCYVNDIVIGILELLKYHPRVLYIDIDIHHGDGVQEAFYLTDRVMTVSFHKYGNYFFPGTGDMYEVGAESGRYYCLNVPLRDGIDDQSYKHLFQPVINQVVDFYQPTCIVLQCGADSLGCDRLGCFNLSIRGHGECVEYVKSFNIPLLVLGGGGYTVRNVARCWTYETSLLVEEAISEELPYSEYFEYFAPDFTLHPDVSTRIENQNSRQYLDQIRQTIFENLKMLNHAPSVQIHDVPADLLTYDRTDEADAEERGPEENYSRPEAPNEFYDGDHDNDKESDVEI
Chain of Histone deacetylase 4 (Homo sapiens) (P56524 whole entry, the tested form may be a part): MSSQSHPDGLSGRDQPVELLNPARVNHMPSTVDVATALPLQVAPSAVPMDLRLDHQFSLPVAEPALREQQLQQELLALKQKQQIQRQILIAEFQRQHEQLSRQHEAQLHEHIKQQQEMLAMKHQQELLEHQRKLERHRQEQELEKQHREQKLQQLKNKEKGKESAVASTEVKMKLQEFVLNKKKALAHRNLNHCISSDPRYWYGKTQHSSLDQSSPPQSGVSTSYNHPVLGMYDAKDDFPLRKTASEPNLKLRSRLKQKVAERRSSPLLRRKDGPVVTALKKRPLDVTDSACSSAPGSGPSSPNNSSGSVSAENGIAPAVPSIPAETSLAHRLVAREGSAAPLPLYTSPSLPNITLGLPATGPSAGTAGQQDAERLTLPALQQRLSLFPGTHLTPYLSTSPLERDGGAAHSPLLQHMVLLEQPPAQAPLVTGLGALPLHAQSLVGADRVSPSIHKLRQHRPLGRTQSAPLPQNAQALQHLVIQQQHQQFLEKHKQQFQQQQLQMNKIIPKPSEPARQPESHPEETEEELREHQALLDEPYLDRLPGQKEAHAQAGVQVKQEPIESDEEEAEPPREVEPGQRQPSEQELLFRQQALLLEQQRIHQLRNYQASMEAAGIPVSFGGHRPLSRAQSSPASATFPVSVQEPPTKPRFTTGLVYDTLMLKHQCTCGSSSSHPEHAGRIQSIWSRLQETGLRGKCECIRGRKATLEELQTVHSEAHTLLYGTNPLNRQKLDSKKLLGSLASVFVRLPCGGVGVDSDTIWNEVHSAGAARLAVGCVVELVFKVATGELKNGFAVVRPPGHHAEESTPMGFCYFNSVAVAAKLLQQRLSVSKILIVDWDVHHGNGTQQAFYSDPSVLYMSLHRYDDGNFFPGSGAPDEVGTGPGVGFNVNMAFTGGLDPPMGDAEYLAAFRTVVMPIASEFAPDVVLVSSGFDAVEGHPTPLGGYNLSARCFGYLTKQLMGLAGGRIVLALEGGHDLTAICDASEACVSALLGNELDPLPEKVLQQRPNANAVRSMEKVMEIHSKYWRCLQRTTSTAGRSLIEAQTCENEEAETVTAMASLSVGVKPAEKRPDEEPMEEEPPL
Chain of Macrophage metalloelastase (Homo sapiens) (P39900 106-470 limits assumed): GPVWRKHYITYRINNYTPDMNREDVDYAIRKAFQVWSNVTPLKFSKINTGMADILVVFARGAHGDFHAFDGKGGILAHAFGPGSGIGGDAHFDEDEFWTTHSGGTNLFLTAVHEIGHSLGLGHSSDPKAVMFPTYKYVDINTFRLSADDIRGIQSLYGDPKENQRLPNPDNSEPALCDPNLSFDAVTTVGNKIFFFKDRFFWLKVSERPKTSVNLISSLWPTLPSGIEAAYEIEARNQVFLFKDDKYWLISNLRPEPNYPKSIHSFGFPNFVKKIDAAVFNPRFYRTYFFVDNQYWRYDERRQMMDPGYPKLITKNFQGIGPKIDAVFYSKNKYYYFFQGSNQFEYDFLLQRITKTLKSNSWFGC
Chain of Disintegrin and metalloproteinase domain-containing protein 17 (Homo sapiens) (P78536 whole entry, the tested form may be a part): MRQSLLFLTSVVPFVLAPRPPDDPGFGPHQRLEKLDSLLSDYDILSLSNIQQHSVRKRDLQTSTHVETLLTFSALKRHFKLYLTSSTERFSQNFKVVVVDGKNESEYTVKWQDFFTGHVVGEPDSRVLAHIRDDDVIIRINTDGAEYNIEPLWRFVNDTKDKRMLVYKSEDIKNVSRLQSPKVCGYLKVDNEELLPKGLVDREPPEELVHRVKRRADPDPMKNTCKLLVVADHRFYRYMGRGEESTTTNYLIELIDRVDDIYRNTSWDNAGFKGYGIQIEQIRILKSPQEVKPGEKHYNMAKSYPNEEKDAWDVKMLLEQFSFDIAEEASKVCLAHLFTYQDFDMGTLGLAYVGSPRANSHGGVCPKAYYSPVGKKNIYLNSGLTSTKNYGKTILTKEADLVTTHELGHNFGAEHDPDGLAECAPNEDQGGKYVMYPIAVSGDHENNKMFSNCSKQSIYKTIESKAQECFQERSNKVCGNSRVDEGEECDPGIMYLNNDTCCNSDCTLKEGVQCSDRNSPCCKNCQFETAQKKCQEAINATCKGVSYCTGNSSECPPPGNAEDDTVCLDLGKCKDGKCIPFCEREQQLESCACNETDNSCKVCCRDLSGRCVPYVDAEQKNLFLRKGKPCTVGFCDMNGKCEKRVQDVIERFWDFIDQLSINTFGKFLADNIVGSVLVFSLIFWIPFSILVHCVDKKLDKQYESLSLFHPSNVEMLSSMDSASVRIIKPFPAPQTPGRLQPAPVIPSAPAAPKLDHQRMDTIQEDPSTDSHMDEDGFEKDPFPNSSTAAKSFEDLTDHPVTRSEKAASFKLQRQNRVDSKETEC
Chain of Histone deacetylase 1 (Homo sapiens) (Q13547 whole entry): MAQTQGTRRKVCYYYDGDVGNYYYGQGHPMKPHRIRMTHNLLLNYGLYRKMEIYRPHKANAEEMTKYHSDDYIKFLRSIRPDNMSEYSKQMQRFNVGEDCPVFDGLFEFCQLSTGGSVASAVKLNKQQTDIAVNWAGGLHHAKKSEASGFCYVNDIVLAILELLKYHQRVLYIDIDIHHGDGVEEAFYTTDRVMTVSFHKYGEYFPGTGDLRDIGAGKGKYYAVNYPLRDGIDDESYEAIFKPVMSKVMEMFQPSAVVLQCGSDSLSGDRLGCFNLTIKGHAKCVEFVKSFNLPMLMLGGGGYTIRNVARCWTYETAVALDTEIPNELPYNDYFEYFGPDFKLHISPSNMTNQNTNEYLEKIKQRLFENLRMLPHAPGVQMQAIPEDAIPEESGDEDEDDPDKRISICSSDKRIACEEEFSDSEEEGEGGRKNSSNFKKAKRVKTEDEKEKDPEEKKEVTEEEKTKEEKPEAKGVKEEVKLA

Turning to `O=C(NO)c1sc2ccccc2c1S(=O)(=O)c1ccccc1`, the inhibition entry in [1] and in data set [5] was “Active” in each case. Moreover, the EC50 in data set [2] was 0.61 µM. Further, the inhibition result in data set [3], in data set [4], in data set [7], in data set [8], in [9] and in data set [10] was “inactive” each time. Moreover, the inhibition entry in [11] and in [12] was “inactive” throughout. The CC50 at 72 h in [6] worked out at 57 µM.

The EC50 is the concentration at which the effect is half-maximal. A low value points to an effect from little substance. In general, CC50 refers to the concentration giving 50% cytotoxicity.
